This is an account of results in PMC4893628, “Chalcone-based Selective Inhibitors of a C4 Plant Key Enzyme as Novel Potential Herbicides” (Scientific Reports, 2016).

One test relates to Amaranthus retroflexus. Nature of the test: In planta growth experiment, A. retroflexus. The test is classed as in vivo. The conditions noted are these: shoots sprayed, 3 mM. From the text: Seeds of Amaranthus retroflexus L. (Herbiseed, Twyford, UK) and Brassica napus L. cv. Mozart (Norddeutsche Pflanzenzucht Hans-Georg Lembke KG, Holtsee, Germany) were sown in vermiculite for germination. When cotyledons were fully expanded, seedlings were transplanted into plastic pots with a volume of 0.230 L filled with a substrate containing 50% bottom ash (0–4 mm), 30% peat and 20% pumice gravel (0–4 mm). Plants were watered every other day with 0.03% Hakaphos® Grün solution (Compo Expert GmbH, Münster, Germany) by sub-irrigation. Plants were grown in a climate chamber at 22 °C/20 °C day/night temperature and a day/night length of 16 h/8 h. Relative humidity was adjusted to 70% and light intensity was 320 μmol m^−2 s^−1 PAR (Photosynthetically Active Radiation) at plant level.
When seedlings reached the two-leaf growth stage, plant shoots were sprayed from the top with treatment solutions using spray bottles with a spraying angle of 35° (10 ml, neoLab Migge Laborbedarf-Vertriebs GmbH, Heidelberg, Germany). Treatment solutions were applied from a height of 8.5 cm above the pots. Each pot was sprayed once with a solution volume of 0.135 ml. Treatment solutions contained 2.4% (v/v) DMSO (dimethylsulfoxide, Duchefa Biochemie, Haarlem, the Netherlands), 0.1% (v/v) Tween® and the respective compound at a concentration of 3 mM. The control treatment contained 2.4% (v/v) DMSO, and 0.1% (v/v) Tween20. Further details are given in the Supplementary Information. […]
Experimental design and assessments of in planta experiments
We tested eleven compounds in a first experiment. In a follow-up experiment we tested selected […]
chalcone. Each treatment was repeated 12 times, except for oilseed rape in the second experiment (n=10). Pots were arranged in the growth chamber according to a fully randomized design. Initial growth of the second leaf of A. retroflexus plants was monitored by aquiring images of each plant from above from day zero to day two after treatment. Images were taken […]
from a fixed distance at 90° view angle using the camera Canon EOS 70D equipped with a Canon EF 14 mm/2.8 L II USM lens. Leaf area of single leaves was measured using the ImageJ software31, by drawing the leaf contours using a drawing tablet (Cintiq 22HD, Wacom Europe GmbH, Krefeld, Germany). Conversion of pixel to cm was achieved by using a target of known size inside the image. Six days after the treatment, half of the plants were harvested. Leaf area was assessed using a leaf area meter (LI3100C Area Meter, LI-Cor, Lincoln, Nebraska, USA) and samples were oven-dried at 65°C for seven days to obtain dry weight . Thirteen days after the treatment, this procedure was repeated with the second half of plants.
Chlorophyll fluorescence measurements […]
6 mm leaf discs were cut out of the second leaf and immediately placed into 96-well-plates filled with 300 µL 0.125 % Hoagland’s solution with 1 mM MES-KOH (MES-monohydrate, Merck, Darmstadt, Germany) buffered to a pH of 6.5. The treatment solution contained 1.6 % (v/v) DMSO, 0.1 % (v/v) Tween® 20 and 2',3',4',3,4-Pentahydroxychalcone at a concentration of 2 mM. The control treatment contained 1.6 % (v/v) DMSO, 0.1 % (v/v) Tween® 20. Each leaf disc was treated with 1.5 µL solution placed on top of the leaf discs. Plates were sealed with Parafilm and placed into a climate cabinet with 12h/12h day/night-length and a temperature of 22°C at a light intensity of 130 µmol m-2 s-1. 96 hours after treatment, chlorophyll fluorescence measurements were performed on leaf discs using an Imaging PAM M-Series fluorescence camera (Heinz Walz GmbH, Effeltrich, Germany). Leaf discs were dark adapted for 30 minutes, minimum and maximum chlorophyll fluorescence were obtained and leaf discs were illuminated for 30 minutes

Test [1] concerns Corynebacterium glutamicum ATCC13032. The experiment in a line: Bacterial growth in microscale cultivation, C. glutamicum. The test is classed as cell-based. The conditions noted are these: for activity at 8 µM / activity at 80 µM / activity at 400 µM / activity at 160 µM / activity at 5 µM / activity at 50 µM / activity at 500 µM / activity at 100 µM: Corynebacterium glutamicum; for activity at 8 µM / activity at 80 µM / activity at 400 µM / activity at 160 µM / Lag Phase: relative to control. As to the method: The following bacteria were cultivated in the presence of trans-chalcone derived inhibitors: Corynebacterium glutamicum ATCC13032[43], Escherichia coli K-12 MG1655[44], Pseudomonas putida KT2440[45], and Bacillus subtilis 168[46]. The growth of these bacteria was monitored in flower-well plates shaken at 1200 rpm as backscatter at 620 nm (gain 20) using a BioLector® microscale cultivation system (m2p labs, Baesweiler, Germany). For further experimental details please refer to the Supplementary Information.
medium or the appropriate minimal medium and shaken at 140 rpm overnight. For inoculation of
the main culture, cells equivalent to an optical density at 600 nm of 0.5 (C. glutamicum, E. coli,
and P. putida) or 0.25 (B. subtilis) in 800 µL medium were washed and resuspended in fresh
media. Inhibitor substances were dissolved in DMSO and added to the media to a final
Since the least polar trans-chalcone and 2’-hydroxychalcone precipitated in the growth media at
the highest concentrations, the maximal concentration of these compounds was reduced to 400
µM and 100 µM, respectively. The final backscatter at 620 nm, the growth rate (h-1), and the
duration of the lag phase of all cultures were determined in a BioLector microscale cultivation
system in comparison to negative controls supplemented with the solvent DMSO. A longer lag

Like-named read-outs stand apart in the source and are kept apart here.

For `O=C(/C=C/c1ccccc1)c1ccccc1` [Compound 1, trans-Chalcone], in the test with Amaranthus retroflexus, the Influence on plants entry is given as “No”. Also, the activity at 8 µM in test [1] (ATCC13032, complex medium, 8 µM, read-out: Final Backscatter) was 98.7%; in test [1] (ATCC13032, complex medium, 8 µM, read-out: Growth rate), 105%; in test [1] (ATCC13032, minimal medium, 8 µM, read-out: Final Backscatter) it was 99.7%; in test [1] (ATCC13032, minimal medium, 8 µM, read-out: Growth rate), 99.3%. In addition, the activity at 80 µM turned out to be 104% in test [1] (ATCC13032, complex medium, 80 µM, read-out: Final Backscatter); 103% in test [1] (ATCC13032, complex medium, 80 µM, read-out: Growth rate); 97% in test [1] (ATCC13032, minimal medium, 80 µM, read-out: Final Backscatter); 97.1% in test [1] (ATCC13032, minimal medium, 80 µM, read-out: Growth rate). Further, the activity at 400 µM in test [1] (ATCC13032, complex medium, 400 µM, read-out: Final Backscatter) stood at 106%; in test [1] (ATCC13032, complex medium, 400 µM, read-out: Growth rate), 103%; in test [1] (ATCC13032, minimal medium, 400 µM, read-out: Final Backscatter), 99.5%; in test [1] (ATCC13032, minimal medium, 400 µM, read-out: Growth rate), 87.5%. Besides, the activity at 160 µM in test [1] (ATCC13032, minimal medium, 160 µM, read-out: Final Backscatter) was determined as 98.3%; in test [1] (ATCC13032, minimal medium, 160 µM, read-out: Growth rate), 92.5%. In addition, the “Influence on bacterial growth” value in test [1] (Minimal medium, highest concentration tested (10× IC50) if not stated otherwise) is “μ↓ (5× IC50)”. Further, the “Lag Phase” value in test [1] (complex medium, 8 µM) is reported as 100,0%; in test [1] (complex medium, 80 µM), 99,5%; in test [1] (complex medium, 400 µM), 103,7%; in test [1] (minimal medium, 8 µM), 100,0%; in test [1] (minimal medium, 80 µM), 102,3%; in test [1] (minimal medium, 160 µM) it was 109,9%. For the same compound, the “Lag Phase” value in test [1] (minimal medium, 400 µM) was 113,6%.
For `O=C(/C=C/c1ccccc1)c1ccccc1O` [Compound 2, 2′-Hydroxychalcone], in the test with Amaranthus retroflexus, the Influence on plants entry is on record as “No”. Also, the activity at 5 µM in test [1] (ATCC13032, read-out: Final Backscatter, complex medium, 5 µM, relative to control) was determined as 101%; in test [1] (ATCC13032, read-out: Final Backscatter, minimal medium, 5 µM, relative to control) it was 102%; in test [1] (ATCC13032, read-out: Growth rate, complex medium, 5 µM, relative to control) it was 96.2%; in test [1] (ATCC13032, read-out: Growth rate, minimal medium, 5 µM, relative to control), 101%. Further, the activity at 50 µM in test [1] (ATCC13032, read-out: Final Backscatter, complex medium, 50 µM, relative to control) was determined as 105%; in test [1] (ATCC13032, read-out: Final Backscatter, minimal medium, 50 µM, relative to control) it was 99.6%; in test [1] (ATCC13032, read-out: Growth rate, complex medium, 50 µM, relative to control), 91.5%; in test [1] (ATCC13032, read-out: Growth rate, minimal medium, 50 µM, relative to control), 99.6%. Also, the activity at 500 µM in test [1] (ATCC13032, read-out: Final Backscatter, complex medium, 500 µM, relative to control) came to 111%; in test [1] (ATCC13032, read-out: Final Backscatter, minimal medium, 500 µM, relative to control) it was 102%; in test [1] (ATCC13032, read-out: Growth rate, complex medium, 500 µM, relative to control) it was 102%; in test [1] (ATCC13032, read-out: Growth rate, minimal medium, 500 µM, relative to control), 92.9%. Also, the activity at 100 µM in test [1] (ATCC13032, read-out: Final Backscatter, minimal medium, 100 µM, relative to control) came to 101%; in test [1] (ATCC13032, read-out: Growth rate, minimal medium, 100 µM, relative to control) it was 101%. For the same compound, the “Lag Phase” value was 98,4% in test [1] (complex medium, 5 µM); 100,0% in test [1] (complex medium, 50 µM); 101,1% in test [1] (complex medium, 500 µM); 98,7% in test [1] (minimal medium, 5 µM); 102,6% in test [1] (minimal medium, 50 µM); 104,2% in test [1] (minimal medium, 100 µM). The “Lag Phase” value in test [1] (minimal medium, 500 µM) is recorded as 124,3%.
